In publication PMC5404560, “Towards Selective Mycobacterial ClpP1P2 Inhibitors with Reduced Activity against the Human Proteasome” (Antimicrobial Agents and Chemotherapy, 2017):
Values after ≈ are worked out from the molar mass of the structure shown. Values joined by “and” are separate entries in the source; they are usually repeats but may differ in a detail not shown here. Equal values may be shown once. Read-outs that look alike come from different tables or passages of the source.

Tests used:
[1] = biological target: T1, Cathepsin G (Homo sapiens, UniProt P08311); experiment: Protease panel: Cathepsin G; format: biochemical; settings: supplement panel table, test and control compound
T1 construct: Reaction Biology Corporation (contract testing)
Protocol: (§2) Protease panel testing was carried out by Reaction Biology Corporation.

[2] = biological target: Chymase (Homo sapiens, UniProt P23946); experiment: Protease panel: Chymase; format: biochemical; settings: supplement panel table, test and control compound
Protocol: as §2

[3] = system: M. smegmatis ΔprcAB; format: cell-based; settings: 24 h exposure, OD600; concentration inhibiting 50% of growth
[4] = system: M. smegmatis wild-type; experiment: Growth inhibition, M. smegmatis wild type; format: cell-based; settings: Mycolicibacterium smegmatis; wild-type strain
[5] = system: M. tuberculosis H37Rv; experiment: microbe, parasite or virus in culture; format: cell-based; settings: for MIC50 / MIC90: Mycobacterium tuberculosis, H37RV, 120 h; for MIC50: read-out: MIC50 (μM) against M. tuberculosis H37Rv; for MIC90: read-out: MIC90 (μM) against M. tuberculosis H37Rv
[6] = system: Mycobacterium bovis BCG; experiment: microbe, parasite or virus in culture; format: cell-based; settings: Mycobacterium tuberculosis variant bovis BCG, read-out: MIC50 for Mycobacterium bovis BCG
[7] = MTS cytotoxicity assay, Vero; format: cell-based; settings: African green monkey
Protocol: (§1) The MTS (Promega) reduction assay was used according to manufacturer's guidelines to assess Vero (ATCC […]) and HepG2 (ATCC HB-8065) cell viability. […] Carbonyl cyanide m-chlorophenylhydrazone (CCCP) was used as a cytotoxic positive control. Cytotoxicity was determined twice in independent experiments.

[8] = MTS cytotoxicity assay, HepG2; format: cell-based, human; settings: human
Protocol: as §1

[9] = biological target: ClpP1P2 (Mycolicibacterium smegmatis, UniProt A0R197+A0R198); experiment: ClpP1P2 inhibition whole-cell RFP-SsrA reporter assay; settings: 3 h incubation
[10] = biological target: HepG2 proteasome (Homo sapiens, UniProt P20618+P28074); experiment: Cell-based proteasome CT-like peptidase inhibition assay (Proteasome-Glo)
Protocol: A cell-based CT-like peptidase assay was performed using the Proteasome-Glo cell-based assay reagent (Promega) according to the manufacturer's guidelines. Briefly, HepG2 cells (10^4 cells/well) were treated with the compounds indicated in the figures for 2 h, followed by incubation with the luminescent substrate for 10 min. Luminescence was detected with a Tecan M200 Pro plate reader.

[11] = M. smegmatis ΔprcAB IC50 (μM) for ClpP1P2, whole-cell RFP-SsrA reporter

Chain of ClpP1P2 (A0R198 4-203): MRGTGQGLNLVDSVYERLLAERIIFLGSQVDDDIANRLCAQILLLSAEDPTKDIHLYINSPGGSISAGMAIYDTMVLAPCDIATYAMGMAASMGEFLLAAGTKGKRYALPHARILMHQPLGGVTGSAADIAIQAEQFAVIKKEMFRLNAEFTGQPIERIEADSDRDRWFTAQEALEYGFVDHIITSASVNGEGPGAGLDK
Chain of ClpP1P2 (A0R197 17-218): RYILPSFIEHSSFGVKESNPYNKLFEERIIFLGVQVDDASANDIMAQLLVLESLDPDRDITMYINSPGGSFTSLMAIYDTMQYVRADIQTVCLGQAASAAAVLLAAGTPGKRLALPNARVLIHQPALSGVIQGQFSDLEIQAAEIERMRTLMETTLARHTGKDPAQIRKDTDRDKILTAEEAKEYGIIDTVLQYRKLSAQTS
Chain of Chymase (P23946 22-247, species assumed): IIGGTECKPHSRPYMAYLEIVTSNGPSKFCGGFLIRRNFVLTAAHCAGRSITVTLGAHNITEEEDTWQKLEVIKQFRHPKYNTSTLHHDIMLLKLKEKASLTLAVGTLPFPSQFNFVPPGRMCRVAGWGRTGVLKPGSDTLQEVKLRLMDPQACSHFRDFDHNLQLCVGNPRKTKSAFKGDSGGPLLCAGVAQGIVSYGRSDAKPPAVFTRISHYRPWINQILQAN
T1 sequence (P08311 21-255, species assumed): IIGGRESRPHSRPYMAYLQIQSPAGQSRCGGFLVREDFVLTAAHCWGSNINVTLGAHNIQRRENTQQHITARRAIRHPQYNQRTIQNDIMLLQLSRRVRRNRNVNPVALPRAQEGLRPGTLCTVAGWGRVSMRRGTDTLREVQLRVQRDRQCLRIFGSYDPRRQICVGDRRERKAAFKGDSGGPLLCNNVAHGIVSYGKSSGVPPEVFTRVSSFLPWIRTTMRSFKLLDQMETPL

## CC(C)C[C@H](NC(=O)[C@@H](NC(=O)N[C@@H](Cc1ccccc1)C(=O)O)[C@@H]1CCN=C(N)N1)C(=O)N[C@H](C=O)Cc1ccccc1 [Chymostatin, reference compound]
[1]
  IC50: 3.83 µM
[2]
  IC50: 0.0915 µM

## CC(C)C[C@H](NC(=O)[C@H](Cc1ccccc1)NC(=O)c1cnccn1)B(O)O [Compound 1, bortezomib, reference compound]
[3]
  M. smegmatis ΔprcAB MIC50: 6 ± 0 µM
[4]
  MIC50: 5 µM (≈ 1.92 µg/mL)
[5]; 5 days
  MIC50: 4.3 ± 1.3 µM (≈ 1.65 µg/mL)
  MIC90: 12 ± 0.5 µM (≈ 4.61 µg/mL)
[6]
  MIC50: 1.8 µM (≈ 0.692 µg/mL)
[7]
  GI50: 250 µM
[8]
  GI50: 400 µM
[9]; read-out: M. smegmatis ΔprcAB IC50 (μM) for ClpP1P2, whole-cell RFP-SsrA reporter
  IC50: 6 ± 0.5 µM

## O=C(N[C@@H](Cc1ccccc1)C(=O)N[C@@H](Cc1ccccc1)B(O)O)c1cnccn1 [Compound 31, ((R)-2-phenyl-1-((S)-3-phenyl-2-(pyrazine-2-carboxamido)propanamido)ethyl)boronic acid]
[3]
  M. smegmatis ΔprcAB MIC50: 16.5 µM and 16.5 ± 8.5 µM
[5]; 5 days
  MIC50: 6 µM (≈ 2.51 µg/mL)
  MIC90: 20 µM (≈ 8.37 µg/mL)
[9]; [11]
  IC50: 7.5 ± 2.6 µM
[10]
  IC50: 0.05 ± 0.01 µM

## O=C(N[C@@H](Cc1ccccc1)C(=O)N[C@@H](CCc1ccccc1)B(O)O)c1cnccn1 [Compound 32, ((R)-3-phenyl-1-((S)-3-phenyl-2-(pyrazine-2-carboxamido)propanamido)propyl)boronic acid]
[3]
  M. smegmatis ΔprcAB MIC50: 7 ± 1 µM
[5]; 5 days
  MIC50: 6 µM (≈ 2.59 µg/mL)
  MIC90: 25 µM (≈ 10.8 µg/mL)
[9]; [11]
  IC50: 7.3 ± 1.9 µM
[10]
  IC50: 0.07 ± 0.01 µM

## O=C(N[C@@H](Cc1ccccc1)C(=O)N[C@@H](CCc1ccccc1)B(O)O)c1ccccc1 [Compound 51, ((R)-1-((S)-2-benzamido-3-phenylpropanamido)-3-phenylpropyl)boronic acid]
[3]
  M. smegmatis ΔprcAB MIC50: 2.7 ± 0.5 µM
[5]; 5 days
  MIC50: 1 ± 0.2 µM (≈ 0.43 µg/mL)
  MIC90: 6 ± 0.2 µM (≈ 2.58 µg/mL)
[9]; [11]
  IC50: 1.5 ± 0.5 µM
[10]
  IC50: 0.167 ± 0.059 µM

## O=C(N[C@@H](Cc1ccc(O)cc1)C(=O)N[C@@H](CCc1ccccc1)B(O)O)c1cnccn1 [Compound 57]
[3]
  M. smegmatis ΔprcAB MIC50: 8 ± 2.8 µM
[5]
  improvement of M. tuberculosis MIC50 over compound 1: 5 fold
[5]; 5 days
  MIC50 (μM) against M. tuberculosis H37Rv: 0.8 ± 0 µM (≈ 0.359 µg/mL)
  MIC50: 0.8 µM (≈ 0.359 µg/mL)
  MIC90: 3 µM (≈ 1.34 µg/mL)
[9]; [11]
  IC50: 7.5 ± 4.5 µM
[10]
  IC50: 0.533 ± 0.103 µM
